{"source": "paper PMC10377513", "about": "“Goldilocks Dilemma: LPS Works Both as the Initial Target and a Barrier for the Antimicrobial Action of Cationic AMPs on E. coli” (Biomolecules, 2023)", "key": {"[1]": {"conditions": "SPR, L1 chip, Biacore T200, room temperature, DMPC liposomes, 10 mM HEPES pH 7.4, 150 mM NaCl, steady-state fit; cited from earlier work", "text": "Introducing 5% of a negatively charged component (DMPG) to the liposomes doubled the KP of all peptides except c(WKWKWK), where the increase was less substantial."}, "[2]": {"assay": "SPR partitioning into immobilized liposomes", "assay_type": "binding, E. coli", "conditions": "DMPC liposomes with 10% LPS versus DMPC and DMPC:PG", "procedure": "The large unilamellar liposomes of DMPC and DMPC:PG (95:5) were prepared for the SPR experiment using standard methods. In brief, lipid mixtures were weighted from dry powder (Avanti, USA) and dissolved in 3:1 dichloromethane:methanol mixtures. The organic mixture was dried in a vacuum rotavapor to form a lipid film which was hydrated to 20 mM total concentration of lipids (for DMPC and DMPC:PG mixture) by adding 10 mM HEPES buffer pH 7.4 with 150 mM NaCl. For DMPC:LPS mixtures, dried LPS was dissolved in water and mixed with DMPC dissolved in dichloromethane. Isopropanol was added to the mixture until only one phase—dichloromethane:isopropanol:water was formed. Dry film was prepared and then hydrated using the same method as above to a concentration of 18 mM of DMPC and 10% (w/w) LPS in HEPES buffer. […]\nThe SPR experiments were performed at room temperature using the L1 chip and T200 Biacore instrument (GE Healthcare, Chicago, IL, USA). […] KD was obtained Using Equation (1) from a standard steady-state fit:(1) RU=RUMAX/1+KD/[P]+off, where RU is measured SPR response; RUMAX is RU response during saturation; [P] is peptide concentration; and off is offset of response. […]\nSPR is emerging as the method of choice for measuring the partitioning of small compounds into lipid bilayers. […] From the estimated KD and the measured koff values, the association rate kon can be calculated (Equation (5)). […]"}, "E. coli ATCC 25922": {"test_system": "E. coli ATCC 25922", "conditions": "CLSI guidelines, MHBII; cited from earlier work", "procedure": "Table 1 MIC and ζ potentials for the tested peptides against P. aeruginosa, S. aureus, and the three E. coli strains: ATCC 25922, LPS deficient—NR 698, and colistin-resistant CCUG 70662, which was tested after cultivation with (+) and without (−) 4 µg/mL of colistin, which caused a decrease of negative charge of the cell wall. MIC values for P. aeruginosa, S. aureus, and E. coli ATCC 25922 are rep | column: MIC (µg/mL) / E. coli ATCC 25922"}, "E. coli CCUG 70662": {"test_system": "E. coli CCUG 70662", "procedure": "(§1) The bacterial strains tested were E. coli ATCC 25922, E. coli […], and E. coli NR-698. The MIC assays followed the CLSI guidelines. Overnight cultures and MIC assays were performed in MHBII (212322, Becton, Dickson and Company, Sparks, MD, USA). In addition, E. coli […] was tested after cultivation with 4 µg/mL of colistin to induce alternation in surface charge.\n(§2) The antimicrobial activity of the five cyclic cationic AMPs was determined against S. aureus, P. aeruginosa, and three strains of E. coli: ATCC 25922, LPS colistin-resistant strain CCUG 70662, and LPS deficient strain NR 698 (Table 1). CCUG 70662 was cultivated in two conditions, both in the absence (−) and in the presence (+) of colistin (4 µg/mL). Resistance development can be monitored by measuring changes in the ζ-potential, reflecting the overall charge of the bacteria. […] In the NR 698 strain, translocation of LPS from the periplasmic space to the outer leaflet is hindered."}, "E. coli NR 698": {"test_system": "E. coli NR 698", "conditions": "LPS deficient strain; CLSI guidelines, MHBII", "procedure": "as §1, §2"}, "P. aeruginosa ATCC 27853": {"test_system": "P. aeruginosa ATCC 27853", "conditions": "CLSI guidelines, MHBII; cited from earlier work", "procedure": "Table 1 MIC and ζ potentials for the tested peptides against P. aeruginosa, S. aureus, and the three E. coli strains: ATCC 25922, LPS deficient—NR 698, and colistin-resistant CCUG 70662, which was tested after cultivation with (+) and without (−) 4 µg/mL of colistin, which caused a decrease of negative charge of the cell wall. MIC values for P. aeruginosa, S. aureus, and E. coli ATCC 25922 are rep | column: MIC (µg/mL) / P. aeruginosa ATCC 27853"}, "S. aureus ATCC 9144": {"test_system": "S. aureus ATCC 9144", "conditions": "CLSI guidelines, MHBII; cited from earlier work", "procedure": "Table 1 MIC and ζ potentials for the tested peptides against P. aeruginosa, S. aureus, and the three E. coli strains: ATCC 25922, LPS deficient—NR 698, and colistin-resistant CCUG 70662, which was tested after cultivation with (+) and without (−) 4 µg/mL of colistin, which caused a decrease of negative charge of the cell wall. MIC values for P. aeruginosa, S. aureus, and E. coli ATCC 25922 are rep | column: MIC (µg/mL) / S. aureus ATCC 9144"}}, "note": "Residues, ends and D or L forms follow the SMILES beside them.", "data": [{"smiles": "CC(C)C[C@@H]1NC(=O)[C@@H](CCCNC(=N)N)NC(=O)[C@H](CCCCN)NC(=O)[C@H](CC(N)=O)NC(=O)[C@@H](Cc2c[nH]c3ccccc23)NC(=O)[C@H](Cc2c[nH]c3ccccc23)NC1=O", "note": "[c(LWwNKr)] (HELM PEPTIDE1{L.W.[dW].N.K.[dR]}$PEPTIDE1,PEPTIDE1,1:R1-6:R2$$$V2.0)", "values": [{"measurement": "Partitioning constant KP", "setting": "[1]", "result": 278}, {"measurement": "Increase in KP with DMPC:LPS compared to the DMPC and DMPC:PG constructs", "setting": "[2]", "result": "four-fold"}, {"measurement": "MIC E. coli ATCC 25922", "setting": "E. coli ATCC 25922", "result": ">250", "unit": "µg/mL"}, {"measurement": "MIC E. coli CCUG 70662+", "setting": "E. coli CCUG 70662", "result": ">250", "unit": "µg/mL"}, {"measurement": "MIC E. coli CCUG 70662−", "setting": "E. coli CCUG 70662", "result": ">250", "unit": "µg/mL"}, {"measurement": "MIC E. coli NR 698", "setting": "E. coli NR 698", "result": 32, "unit": "µg/mL"}, {"measurement": "MIC P. aeruginosa ATCC 27853", "setting": "P. aeruginosa ATCC 27853", "result": ">250", "unit": "µg/mL"}, {"measurement": "MIC S. aureus ATCC 9144", "setting": "S. aureus ATCC 9144", "result": ">250", "unit": "µg/mL"}]}, {"smiles": "NCCCC[C@@H]1NC(=O)[C@H](Cc2c[nH]c3ccccc23)NC(=O)[C@H](CCCCN)NC(=O)[C@H](Cc2c[nH]c3ccccc23)NC(=O)[C@H](CCCCN)NC(=O)[C@H](Cc2c[nH]c3ccccc23)NC1=O", "note": "[c(WKWKWK)] (HELM PEPTIDE1{W.K.W.K.W.K}$PEPTIDE1,PEPTIDE1,1:R1-6:R2$$$V2.0)", "values": [{"measurement": "MIC E. coli ATCC 25922", "setting": "E. coli ATCC 25922", "result": 64, "unit": "µg/mL"}, {"measurement": "MIC E. coli CCUG 70662+", "setting": "E. coli CCUG 70662", "result": 64, "unit": "µg/mL"}, {"measurement": "MIC E. coli CCUG 70662−", "setting": "E. coli CCUG 70662", "result": 64, "unit": "µg/mL"}, {"measurement": "MIC E. coli NR 698", "setting": "E. coli NR 698", "result": 4, "unit": "µg/mL"}, {"measurement": "MIC P. aeruginosa ATCC 27853", "setting": "P. aeruginosa ATCC 27853", "result": ">250", "unit": "µg/mL"}, {"measurement": "MIC S. aureus ATCC 9144", "setting": "S. aureus ATCC 9144", "result": 128, "unit": "µg/mL"}]}, {"smiles": "N=C(N)NCCC[C@@H]1NC(=O)[C@H](CCCNC(=N)N)NC(=O)[C@H](Cc2c[nH]c3ccccc23)NC(=O)[C@H](Cc2c[nH]c3ccccc23)NC(=O)[C@H](Cc2c[nH]c3ccccc23)NC(=O)[C@H](CCCNC(=N)N)NC1=O", "note": "[c(WWWRRR)] (HELM PEPTIDE1{W.W.W.R.R.R}$PEPTIDE1,PEPTIDE1,1:R1-6:R2$$$V2.0)", "values": [{"measurement": "Partitioning constant KP", "setting": "[1]", "result": 6649}, {"measurement": "MIC E. coli ATCC 25922", "setting": "E. coli ATCC 25922", "result": 8, "unit": "µg/mL"}, {"measurement": "MIC E. coli CCUG 70662+", "setting": "E. coli CCUG 70662", "result": 8, "unit": "µg/mL"}, {"measurement": "MIC E. coli CCUG 70662−", "setting": "E. coli CCUG 70662", "result": 8, "unit": "µg/mL"}, {"measurement": "MIC E. coli NR 698", "setting": "E. coli NR 698", "result": 4, "unit": "µg/mL"}, {"measurement": "MIC P. aeruginosa ATCC 27853", "setting": "P. aeruginosa ATCC 27853", "result": 16, "unit": "µg/mL"}, {"measurement": "MIC S. aureus ATCC 9144", "setting": "S. aureus ATCC 9144", "result": 4, "unit": "µg/mL"}]}, {"smiles": "NCCCC[C@@H]1NC(=O)[C@H](CCCCN)NC(=O)[C@H](Cc2c[nH]c3ccccc23)NC(=O)[C@H](Cc2c[nH]c3ccccc23)NC(=O)[C@H](Cc2c[nH]c3ccccc23)NC(=O)[C@H](CCCCN)NC1=O", "note": "[c(WWWKKK)] (HELM PEPTIDE1{W.W.W.K.K.K}$PEPTIDE1,PEPTIDE1,1:R1-6:R2$$$V2.0)", "values": [{"measurement": "MIC E. coli ATCC 25922", "setting": "E. coli ATCC 25922", "result": 8, "unit": "µg/mL"}, {"measurement": "MIC E. coli CCUG 70662+", "setting": "E. coli CCUG 70662", "result": 4, "unit": "µg/mL"}, {"measurement": "MIC E. coli CCUG 70662−", "setting": "E. coli CCUG 70662", "result": 4, "unit": "µg/mL"}, {"measurement": "MIC E. coli NR 698", "setting": "E. coli NR 698", "result": 2, "unit": "µg/mL"}, {"measurement": "MIC P. aeruginosa ATCC 27853", "setting": "P. aeruginosa ATCC 27853", "result": 32, "unit": "µg/mL"}, {"measurement": "MIC S. aureus ATCC 9144", "setting": "S. aureus ATCC 9144", "result": 32, "unit": "µg/mL"}]}]}
